Data taken from PMC11125126, “Synthesis, Characterisation, and In Vitro Evaluation of Biocompatibility, Antibacterial and Antitumor Activity of Imidazolium Ionic Liquids” (Pharmaceutics, 2024).
Read-outs that look alike come from different tables or passages of the source.

Legend:
Experiment in all cases: MIC/MBC by broth dilution, pure ILs
Type in all cases: cell-based
Conditions in all cases: 24 h; for MBC: read-out: MBC; for MIC: read-out: MIC
[1] = system: Escherichia coli
Source text: (§1) Within the Di3A (Dipartimento di Agricoltura, Alimentazione e Ambiente, University of Catania, Italy) microbial collection, two Gram-negative strains (Escherichia coli and Pseudomonas fluorescens) and one Gram-positive strain (Listeria monocytogenes) were studied in order to define the potential efficacy of ionic liquids in relation to the different structure of the bacterial cell wall.
(§2) For the pure ILs, the minimal inhibitory concentration (MIC) and minimal bactericidal concentration (MBC) were determined in Nutrient Broth (NB, Oxoid, Basingstoke, UK) medium by broth dilution method, according to the Clinical and Laboratory Standards Institute (CLSI).
(§3) All the bacterial strains were individually grown for 24 h at 35 or 27 °C for P. fluorescens, with shaking. After the incubation period, the cells were collected by centrifugation and re-suspended in sterile NB to obtain a stock culture of 10^9 CFU/mL.
(§4) Tubes containing 5 mL of NB with decreasing concentrations of ILs (1000, 500, 250, 125, 50, 25, 12.5, 5 and 0 µg/mL) were inoculated with each bacterial stock culture at a final concentration of 10^6 CFU/mL.
(§5) Tubes were incubated at 35 or 27 °C in an orbital shaker and evaluated for the viable count of E. coli, P. fluorescens, and L. monocytogenes after 24 h by spread-plating 100 µL of each suspension on Nutrient Agar (NA, Oxoid, Basingstoke, UK) incubated for 24–48 h at 35 or 27 °C.
(§6) In this study, MIC and MBC are expressed in both µg/mL and µM to make the comparison with the literature data easy. Each experiment was performed in triplicate.

[2] = system: Listeria monocytogenes
Source text: as §1, §2, §3, §4, §5, §6

[3] = system: Pseudomonas fluorescens
Source text: as §1, §2
All the bacterial strains were individually grown for 24 h at 35 or 27 °C for P. fluorescens, with shaking. After the incubation period, the cells were collected by centrifugation and re-suspended in sterile NB to obtain a stock culture of 10^9 CFU/mL. […]
as §5, §6

[4] = NI = no inhibition at IL maximum concentration used (1000 µM)

CCCCCCCCCCn1cc[n+](C)c1.F[B-](F)(F)F [C10mimBF4]
MBC ([1]; 10^6 CFU/mL): 155 µg/mL
MIC ([1]; 10^6 CFU/mL): 77.5 µg/mL
MBC [1, 4]: 500 µM
MIC [1, 4]: 250 µM
MBC ([2]; 10^6 CFU/mL): 155 µg/mL
MIC ([2]; 10^6 CFU/mL): 77.5 µg/mL
MBC [2, 4]: 500 µM
MIC [2, 4]: 250 µM
MBC ([3]; 10^6 CFU/mL): 155 µg/mL
MIC ([3]; 10^6 CFU/mL): 38.8 µg/mL
MBC [3, 4]: 500 µM
MIC [3, 4]: 125 µM
